# Measurements from patent US20230152324A1, “TUMOR-INTRINSIC NLRP3 INFLAMMASOME SIGNALING PATHWAY AS A GENETIC AND FUNCTIONAL BIOMARKER FOR IMMUNOTHERAPY RESPONSE” (Duke University, priority 2021, published 2023).
# Tested on: mice bearing BRAF^V600EPTEN^−/− melanomas
# Test: Lung fibronectin expression (qrt-PCR, IHC) in BRAFV600EPTEN−/− melanoma-bearing mice
# Assay type: in vivo, mouse
# Conditions: anti-PD-1 vs anti-PD-1/Wnti treated tumor-bearing mice
# Description: Prior studies have shown that the arrival of […] (HPC) expressing vascular endothelial growth factor receptor-1 (VEGFR1) in the lung as well as increased fibronectin expression by local fibroblasts contribute to the formation of a pre-metastatic niche that subsequently supports metastatic progression (35). Using multi-parameter flow cytometry, we indeed observed an increase in a c-kit^+CD133^+CD34^+VEGFR1^+ HPC (VEGFR1^+ HPC) population in mice harboring BRAF^V600EPTEN^−/− melanomas relative to non-tumor-bearing controls. […]
# Small representative tissue specimens were harvested from tumors and lungs and stored in RNAlater at −80° C. […] Total RNA was isolated by RNeasy Plus Mini Kit (Qiagen, 74134) and RNA was quantified by NanoDrop. […] All data were normalized to Actb expression and relative gene expression was quantitated based on the 2ΔΔCt method. Relative mRNA levels of the following genes were measured: Cxcl5, Cxcl1, Cxcl2, Trp2, Csf3, Il1b, Fn1, Tgfb, Tgfbr2, Spp1, and Hsp70.
# Paraffin-Sections (5-μm) from primary melanomas and lung tissues were processed using standard protocols for immunohistochemistry (IHC) and immunofluorescence (IF) staining. […] PMN-MDSC quantitation by Ly6G-staining, and CD8^+ T cell quantitation by CD8a-staining were performed at 20× magnification and 6-8 random fields were averaged per section over 3-4 sections per specimen. […]
smiles,measurement,value
Cn1c(=O)c2c(ncn2CC(=O)Nc2ccc(-c3ccccc3)nn2)n(C)c1=O [ETC-159],tumor-dependent upregulation of fibronectin expression levels in the lungs,reversed
